Assay results: patent US8648092B2, “Imidazo[1,2-a]pyridine derivatives: preparation and pharmaceutical applications” (MEI Pharma, priority 2005, dated 2014)
pIC50: −log10 of the molar value.

Tests used:
[1] = molecular target: HDAC1 enzyme (recombinant GST-HDAC1) (Homo sapiens (Human), UniProt Q13547); experiment: In vitro HDAC assay for determination of IC50 values (BIOMOL fluorescent-based HDAC activity assay); assay type: biochemical; conditions: Flur de lys substrate, 2 h room temperature, read-out: IC50 (HDAC 1)
Description: Biological Testing and Enzyme Assays Recombinant GST-HDAC1 Protein Expression and Purification
Human cDNA library was prepared using cultured SW620 cells. Amplification of human HDAC1 coding region from this cDNA library was cloned separately into the baculovirus expression pDEST20 vector (GATEWAY Cloning Technology, Invitrogen Pte Ltd). The pDEST20-HDAC1 construct was confirmed by DNA sequencing. Recombinant baculovirus was prepared using the Bac-To-Bac method following the manufacturer's instruction (Invitrogen Pte Ltd).
Expression of GST-HDAC1 was done by infecting SF9 cells (Invitrogen Pte Ltd) with pDEST20-HDAC1 baculovirus at MOI=1 for 48 h. Soluble cell lysate was incubated with pre-equilibrated Glutathione Sepharose 4B beads (Amersham) at 4° C. for 2 h. The beads were washed with PBS buffer for 3 times. The GST-HDAC1 protein was eluted by elution buffer containing 50 mM Tris, pH8.0, 150 mM NaCl, 1% Triton X-100 and 10 mM or 20 mM reduced Glutathione. The purified GST-HDAC1 protein was dialyzed with HDAC storage buffer containing 10 mM Tris, pH7.5, 100 mM NaCl and 3 mM MgCl2. 20% Glycerol was added to purified GST-HDAC1 protein before storage at −80° C.
In Vitro HDAC Assay for Determination of IC50 Values
The assay has been carried out in 96 well format and the BIOMOL fluorescent-based HDAC activity assay has been applied. […] Flur de lys Developer was added and the reaction was incubated for 10 min. Briefly, deacetylation of the substrate sensitizes it to the developer, which then generates a fluorophore. The fluorophore is excited with 360 nm light and the emitted light (460 nm) is detected on a fluorometric plate reader (Tecan Ultra Microplate detection system, Tecan Group Ltd.).
The analytical software, Prism 4.0 (GraphPad Software Inc) has been used to generate IC50 from a series of data.

Colo205 cells = experiment: Cell-based proliferation assay for determination of GI50 values (CyQUANT); set-up: species or system human; conditions: Homo sapiens
Description: Cell-Based Proliferation Assay for Determination of GI50 Values
Human cancer cell lines (e.g. Colo205) were obtained from ATCC. Colo205 cells were cultivated in RPMI 1640 containing 2 mM L-Glutamine, 5% FBS, 1.0 mM Na Pyruvate. Colo205 cells were seeded in 96-wells plate at 5000 cells per well. The plates were incubated at 37° C., 5% CO2, for 24 h. Cells were treated with compounds at various concentrations for 96 h. Cell growth was then monitored using CyQUANT® cell proliferation assay (Invitrogen Pte Ltd). Dose response curves were plotted to determine GI50 values for the compounds using XL-fit (ID Business Solution, Emeryville, Calif.). GI50 is defined as the concentration of compound required for 50% inhibition of cell growth.
The cellular or growth inhibition activity results of representative compounds are shown in Table 4 below (unit in the table is micromolar).

HDAC1 enzyme (recombinant GST-HDAC1), sequence (Q13547 whole entry): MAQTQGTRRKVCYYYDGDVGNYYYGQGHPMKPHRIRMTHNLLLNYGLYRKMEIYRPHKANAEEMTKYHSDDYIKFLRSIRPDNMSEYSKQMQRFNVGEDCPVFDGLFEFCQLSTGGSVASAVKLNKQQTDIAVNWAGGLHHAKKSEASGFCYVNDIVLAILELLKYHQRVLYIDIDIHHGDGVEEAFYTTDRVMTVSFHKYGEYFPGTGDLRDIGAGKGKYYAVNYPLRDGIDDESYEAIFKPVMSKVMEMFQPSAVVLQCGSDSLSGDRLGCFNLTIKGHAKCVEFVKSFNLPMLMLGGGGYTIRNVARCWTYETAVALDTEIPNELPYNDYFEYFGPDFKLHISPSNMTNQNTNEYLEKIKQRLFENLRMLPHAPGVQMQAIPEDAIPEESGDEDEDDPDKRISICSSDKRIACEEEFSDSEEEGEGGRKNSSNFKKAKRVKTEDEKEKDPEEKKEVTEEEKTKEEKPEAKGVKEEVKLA

SMILES | pIC50 [1] | GI50 (Colo205 cells; COLO 205, 96 h treatment) [nM] | GI50 (Colo205 cells; COLO 205, 96 h, 96 h treatment) [nM]
CCCCc1nc2cc(/C=C/C(=O)NO)ccn2c1CN(CC)CCC(C)CC(C)(C)C (stereo not shown) [Compound 119, 3-(2-Butyl-3-{[ethyl-(3,55-trimethyl-hexyl)-amino]-methyl}-imidazo[1,2-a]pyridin-7-yl)-N-hydroxy-acrylamide] | 6.70 | 530 | 
CCCCCCc1nc2cc(/C=C/C(=O)NO)ccn2c1NCCC(=O)N(CCOC)C(C)C [Compound 38, 3-(2-Hexyl-3-{2-[isopropyl-(2-methoxy-ethyl)-carbamoyl]-ethylamino}-imidazo[1,2-a]pyridin-7-yl)-N-hydroxy-acrylamide] | 6.44 | 3500 | 
CCCCN(CC)Cc1c(CC)nc2cc(/C=C/C(=O)NO)ccn12 [Compound 138, 3-{3-[(Butyl-ethyl-amino)-methyl]-2-ethyl-imidazo[1,2-a]pyridin-7-yl}-N-hydroxy-acrylamide] | 7.30 | 180 | 
O=C(/C=C/c1ccn2c(CNCC(F)(F)F)c(-c3ccccc3)nc2c1)NO [Compound 46, N-Hydroxy-3-{2-phenyl-3-[(2,2,2-trifluoro-ethylamino)-methyl]-imidazo[1,2-a]pyridin-7-yl}-acrylamide] | < 5.00 | 11000 | 
CCCCCCN(CC)Cc1c(C(C)(C)C)nc2cc(/C=C/C(=O)NO)ccn12 [Compound 90, 3-{2-tert-Butyl-3-[(ethyl-hexyl-amino)-methyl]-imidazo[1,2-a]pyridin-7-yl}-N-hydroxy-acrylamide] | 6.62 | 2000 | 
CCCc1nc2cc(/C=C/C(=O)NO)ccn2c1CNC(C)(C)C [Compound 123, 3-[3-(tert-Butylamino-methyl)-2-propyl-imidazo[1,2-a]pyridin-7-yl]-N-hydroxy-acrylamide] | 7.40 |  | 180
O=C(/C=C/c1ccc2nc(CCc3ccccc3)c(NC3CCCCC3)n2c1)NO [Compound 6, 3-(3-Cyclohexylamino-2-phenethyl-imidazo[1,2-a]pyridin-6-yl)-N-hydroxy-acrylamide] | 5.85 | 42000 | 
CCCCCCc1nc2cc(/C=C/C(=O)NO)ccn2c1NCCC(=O)NC(CO)C(C)C (stereo not shown) [Compound 27, 3-{2-Hexyl-3-[2-(1-hydroxymethyl-2-methyl-propylcarbamoyl)-ethylamino]-imidazo[1,2-a]pyridin-7-yl}-N-hydroxy-acrylamide] | 6.74 | 8500 | 
CCCCCCc1nc2ccc(/C=C/C(=O)NO)cn2c1NCCC(=O)NCCN(C)C [Compound 19, (E)-3-(3-(3-(2-(dimethylamino)ethylamino)-3-oxopropylamino)-2-hexylimidazo[1,2-a]pyridin-6-yl)-N-hydroxyacrylamide] | 6.11 | 24000 | 
CCCCc1nc2cc(/C=C/C(=O)NO)ccn2c1CN(CC)CC(C)C [Compound 112, 3-{2-Butyl-3-[(ethyl-isobutyl-amino)-methyl]-imidazo[1,2-a]pyridin-7-yl}-N-hydroxy-acrylamide] | 7.05 | 570 | 
CC(C)Nc1c(C(C)C)nc2ccc(/C=C/C(=O)NO)cn12 [Compound 14, N-Hydroxy-3-(2-isopropyl-3-isopropylamino-imidazo[1,2-a]pyridin-6-yl)-acrylamide] | 5.57 | 9200 | 
CCCCc1nc2cc(/C=C/C(=O)NO)ccn2c1CN(CC)CCCC [Compound 77, 3-{2-Butyl-3-[(butyl-ethyl-amino)-methyl]-imidazo[1,2-a]pyridin-7-yl}-N-hydroxy-acrylamide] | 7.22 | 160 | 
CCCCN(CC)Cc1c(-c2ccccc2)nc2cc(/C=C/C(=O)NO)ccn12 [Compound 120, 3-{3-[(Butyl-ethylamino)-methyl]-2-phenyl-imidazo[1,2-a]pyridin-7-yl}-N-hydroxy-acrylamide] | 7.40 | 680 | 
CCCCc1nc2cc(/C=C/C(=O)NO)ccn2c1CN(CC)CCC(C)(C)C [Compound 117, 3-(2-Butyl-3-{[(3,3-dimethyl-butyl)-ethyl-amino]-methyl}-imidazo[1,2-a]pyridin-7-yl)-N-hydroxy-acrylamide] | 7.52 | 140 | 
